The source of these data is patent publication US20120258961A1, “4-AMINO-1,3-THIAZINE OR OXAZINE DERIVATIVE” (SHIONOGI & CO., LTD., priority 2009, published 2012).

In general, IC50 refers to the concentration needed to halve the response being measured. The term bioavailability denotes the share of a dose that reaches the circulation, judged against a reference dose that is usually intravenous. The low end stands for poor availability, the high end for good availability. A word on the solubility: it is the concentration that dissolves in the medium under given conditions.

Data set [1] has as its system Neuroblastoma SH-SY5Y cells (SH/APPwt) with human wild-type β-APP excessively expressed. Description: Measurement of β-amyloid (Aβ) production inhibitory effect in cell. The conditions noted are these: 24 hours, Amyloid β 1-40 HTRF in culture supernatant, read-out: Test example 2 IC50 (amount needed to inhibit Aβ production by 50%). In kind it is cell-based. As for the experimental part: Neuroblastoma SH-SY5Y cells (SH/APPwt) with human wild-type β-APP excessively expressed therein were prepared at 8×10^5 cells/mL, and 150 μl portions thereof were inoculated into each well of a 96-well culture plate (Falcon). The cells were cultured for 2 hours at 37° C. in a 5% gaseous carbon dioxide incubator. Then, a solution which had been preliminarily prepared by adding and suspending the test compound (DMSO (dimethyl sulfoxide) solution) so as to be 2 μl/50 μl medium was added to the cell sap. Namely, the final DMSO concentration was 1%, and the amount of the cell culture was 200 μl. After the incubation was performed for 24 hours from the addition of the test compound, 100 μl of the culture supernatant was collected from each fraction. The amount of the Aβ in each fraction was measured.
The Aβ amount was measured as follows. 10 μl of a homogeneous time resolved fluorescence (HTRF) measurement reagent (Amyloid β 1-40 peptide; IBA Molecular Holding, S.A.) and 10 μl of the culture supernatant were put into a 384-well half area microplate (black microplate, Costar) and mixed with each other, and then left standing overnight at 4° C. while the light was shielded. Then, the fluorescence intensity (excitation wavelength: 337 nm, measurement wavelength: 620 nm and 665 nm) was measured with a Wallac 1420 multilabel counter (Perkin Elmer life sciences). The Aβ amount was determined from the count rate at each measurement wavelength (10000×Count 665/Count 620), and the amount needed to inhibit Aβ production by 50% (IC50) was calculated from at least six different dosages.
For orientation: Time-resolved FRET reads energy transfer from a long-lived donor to a nearby acceptor.

For another data set, the target named is T1, Recombinant human BACE1 (Homo sapiens, UniProt P56817).
T1 construct: purchased R&D Systems
Description: Assay of BACE1 inhibiting activity. The format is biochemical. The following applies: Recombinant human BACE1 7.4 nmol/L, substrate peptide 18 nmol/L, pH 5.0, 30° C., 3 hours; read-out: Test example 1 IC50 (BACE1 inhibiting activity). How it is done:
48.5 μL of substrate peptide solution (Biotin-XSEVNLDAEFRHDSGC-Eu: X=ε-amino-n-capronic acid, Eu=Europium cryptate) was added to each well of 96-hole half-area plate (a black plate: Costar), and after addition of 0.5 μl of the test compound (dissolved in […]) and 1 μl of Recombinant human BACE1 (R&D Systems), the reaction mixture was incubated at 30° C. for 3 hours. The substrate peptide was synthesized by reacting Cryptate TBPCOOH mono SMP (CIS bio international) with Biotin-XSEVNLDAEFRHDSGC (Peptide Institute, Inc.). The final concentrations of the substrate peptide and Recombinant human BACE1 were adjusted to 18 nmol/L and 7.4 nmol/L, respectively, and the reaction was performed in sodium acetate buffer (50 mmol/L sodium acetate, pH 5.0, 0.008% Triton X-100). After the incubation for reaction, 50 μl of 8.0 μg/ml Streptavidin-XL665 (CIS bio international) dissolved in phosphate buffer (150 mmol/L K2HPO4—KH2PO4, pH 7.0, 0.008% Triton X-100, 0.8 mol/L KF) was added to each well and left stand at 30° C. for an hour. After then, fluorescence intensity was measured (excitation wavelength: 320 nm, measuring wavelength: 620 nm and 665 nm) using Wallac 1420 multilabel counter (Perkin Elmer life sciences). Enzymatic activity was determined from counting ratio of each wavelength (10,000×Count 665/Count 620) and 50% inhibitory concentration (IC50) against the enzymatic activity was calculated.

The nature of data set [2]: BA test (oral absorption). The format is in vivo. The following applies: plasma; from AUCs of oral and intravenous administration groups, mouse or rats. As for the experimental part:
Materials and Methods for studies on oral absorption
(1) Animal: Mouse or Rats
(2) Breeding conditions: mouse or rats were allowed to freely take solid feed and sterilized tap water. (3) Dose and grouping: orally or intravenously administered at a predetermined dose; grouping was as follows (Dose depends on the compound) Oral administration: 1 to 30 mg/kg (n=2 to 3) Intravenous administration: 0.5 to 10 mg/kg (n=2 to 3) (4) Preparation of dosing solution: for oral administration, in a solution or a suspension state; for intravenous administration, in a solubilized state (5) Administration method: in oral administration, forcedly administer into ventriculus with oral probe; in intravenous administration, administer from caudal vein with a needle-equipped syringe (6) Evaluation items: blood was collected over time, and the plasma concentration of drug was measured by LC/MS/MS (7) Statistical analysis: regarding the transition of the plasma concentration, the area under the plasma concentration-time curve (AUC) was calculated by non-linear least squares program WinNonlin (Registered trade name), and the bioavailability (BA) was calculated from the AUCs of the oral administration group and intravenous administration group

Data set [3] deals with CYP1A2, CYP2C9, CYP2C19, CYP2D6, CYP3A4. In words: in vitro. The following applies: human, microsomes.
Description: Using commercially available pooled human hepatic microsome, and employing, as markers, O-deethylation of 7-ethoxyresorufin (CYP1A2), methyl-hydroxylation of tolbutamide (CYP2C9), 4′-hydroxylation of mephenyloin (CYP2C19), O-demethylation of dextromethorphan (CYP2D6) and hydroxylation of terfenadine (CYP3A4) as typical substrate metabolism reactions of human main five CYP enzyme forms (CYP1A2, 2C9, 2C19, 2D6, 3A4), an inhibitory degree of each metabolite production amount by a test compound was assessed. […]
Each five kinds of substrates, human hepatic microsome, and a test drug in 50 mmol/L Hepes buffer as a reaction solution was added to a 96-well plate at the composition as described above, NADPH, as a cofactor was added to initiate metabolism reactions as markers and, after the incubation at 37° C. for 15 minutes, a methanol/acetonitrile=1/1 (v/v) solution was added to stop the reaction. After the centrifugation at 3000 rpm for 15 minutes, resorufin (CYP1A2 metabolite) in the supernatant was quantified by a fluorescent multilabel counter and tributamide hydroxide (CYP2CP metabolite), mephenyloin 4′ hydroxide (CYP2C19 metabolite), dextromethorphan (CYP2D6 metabolite), and terfenadine alcohol (CYP3A4 metabolite) were quantified by LC/MS/MS. […]
Data set [4] is described as follows: Metabolism stability test. In kind it is in vitro ADME. The following applies: human liver microsomes 0.5 mg protein/mL, 1 mmol/L NADPH, 37° C., 30 minutes. As for the experimental part:
Using a commercially available pooled human hepatic microsomes, a test compound was reacted for a constant time, a remaining rate was calculated by comparing a reacted sample and an unreacted sample, thereby, a degree of metabolism in liver was assessed.
A reaction was performed (oxidative reaction) at 37° C. for 0 minute or 30 minutes in the presence of 1 mmol/L NADPH in 0.2 mL of a buffer (50 mmol/L Tris-HCl pH 7.4, 150 mmol/L potassium chloride, 10 mmol/L magnesium chloride) containing 0.5 mg protein/mL of human liver microsomes. After the reaction, 50 μL of the reaction solution was added to 100 μL of a methanol/acetonitrile=1/1 (v/v), mixed and centrifuged at 3000 rpm for 15 minutes. The test compound in the supernatant was quantified by LC/MS/MS, and a remaining amount of the test compound after the reaction was calculated, letting a compound amount at 0 minute reaction time to be 100%.
A general note: Microsomes from liver hold many membrane-bound enzymes, among them those of drug oxidation.

The nature of data set [5]: Solubility test (Test Example 7(1)). In kind it is physicochemical. The conditions noted are these: aqueous buffer, kinetic from dmso stock; medium (JP-I, JP-II), 2% DMSO solution, after 4 hours; read-out: Solubility assessed by 3 stages from turbidity. As for the experimental part:
A 2-fold dilution series (12 points) of a 10 mM solution of a test compound in DMSO was added to a medium (JP-I, JP-II) (2%), and solubility was assessed by 3 stages (High; >40 μM, Medium; 3-40 μM, Low; <3 μM) from a turbidity after 4 hours (crystallization information).

Data set [6] addresses T2, CYP3A4 enzyme expressed in Escherichia coli (Homo sapiens, UniProt P08684).
T2 construct: host or cells: Escherichia coli
Description: CYP3A4 fluorescent MBI test. In kind it is in vitro ADME. The following applies: substrate 7-BFC. As for the experimental part:
The CYP3A4 fluorescent MBI test is a test of investigating enhancement of CYP3A4 inhibition of a compound by a metabolism reaction, and the test was performed using, as CYP3A4 enzyme expressed in Escherichia coli and employing, as an index, a reaction in which 7-benzyloxytrifluoromethylchmarin (7-BFC) is debenzylated by the CYP3A4 enzyme to produce a metabolite, 7-hydroxytrifluoromethylchmarin (HFC) emitting fluorescent light.
The reaction conditions were as follows: substrate, 5.6 μmol/L 7-BFC; pre-reaction time, 0 or […]; reaction time, 15 minutes; reaction temperature, 25° C. […]
An enzyme in a K-Pi buffer (pH 7.4) and a test drug solution as a pre-reaction solution were added to a 96-well plate at the composition of the pre-reaction, a part of it was transferred to another 96-well plate so that it was 1/10 diluted by a substrate in a K-Pi buffer, NADPH as a co-factor was added to initiate a reaction as an index (without preincubation) and, after a predetermined time of a reaction, acetonitrile/0.5 mol/L Tris(trishydroxyaminomethane)=4/1 was added to stop the reaction. […] For the plate on which each index reaction had been performed, a fluorescent value of 7-HFC which is a metabolite was measured with a fluorescent plate reader. […]

The nature of data set [7]: Brain distribution studies. In kind it is in vivo. The conditions noted are these: rat, intravenous 0.5 mg/mL/kg, 30 minutes later, read-out: Brain Kp value (area ratio brain/plasma). As for the experimental part: Intravenous administration is carried out to a rat by 0.5 mg/mL/kg dosage of a text compound. […] Then, the brain was extracted and 20-25% of homogenate thereof was prepared with distilled water. On the other hand, the obtained blood is used as plasma after centrifuging. Then, to the brain sample was added the control plasma at 1:1. To the plasma samples was added the control brains at 1:1. Each sample was measured using LC/MS/MS. The obtained area ratio (a brain/plasma) was used for the brain Kp value.

T1 sequence (P56817 46-501): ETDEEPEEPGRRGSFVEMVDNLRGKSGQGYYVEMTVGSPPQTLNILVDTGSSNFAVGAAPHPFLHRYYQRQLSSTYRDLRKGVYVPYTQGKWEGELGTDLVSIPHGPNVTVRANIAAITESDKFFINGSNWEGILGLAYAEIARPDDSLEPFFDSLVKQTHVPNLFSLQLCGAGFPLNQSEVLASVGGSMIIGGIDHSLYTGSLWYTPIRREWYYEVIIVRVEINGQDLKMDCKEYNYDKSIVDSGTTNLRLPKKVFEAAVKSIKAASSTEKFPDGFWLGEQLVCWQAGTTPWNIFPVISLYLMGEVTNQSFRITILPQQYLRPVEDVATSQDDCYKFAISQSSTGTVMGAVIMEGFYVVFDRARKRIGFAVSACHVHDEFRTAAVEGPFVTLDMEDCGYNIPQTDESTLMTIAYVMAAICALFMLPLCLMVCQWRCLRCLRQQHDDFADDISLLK
T2 sequence (P08684 whole entry): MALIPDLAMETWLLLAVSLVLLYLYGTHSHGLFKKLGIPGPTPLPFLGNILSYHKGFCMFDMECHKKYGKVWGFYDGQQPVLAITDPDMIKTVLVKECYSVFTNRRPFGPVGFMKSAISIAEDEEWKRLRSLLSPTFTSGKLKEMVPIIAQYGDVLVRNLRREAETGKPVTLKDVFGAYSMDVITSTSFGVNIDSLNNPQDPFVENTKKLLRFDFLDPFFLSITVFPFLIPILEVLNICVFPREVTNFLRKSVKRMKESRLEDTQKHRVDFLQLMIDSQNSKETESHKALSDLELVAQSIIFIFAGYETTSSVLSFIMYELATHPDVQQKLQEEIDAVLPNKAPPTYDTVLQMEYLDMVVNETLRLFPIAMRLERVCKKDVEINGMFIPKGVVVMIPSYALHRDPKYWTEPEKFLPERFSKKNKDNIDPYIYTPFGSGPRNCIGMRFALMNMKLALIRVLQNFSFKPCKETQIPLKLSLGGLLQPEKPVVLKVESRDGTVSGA

Regarding `CC1(c2cc(NC(=O)c3ccc(C#N)cn3)ccc2F)N=C(N)CCS1` (stereo not shown) [Compound I-6], the IC50 in data set [1] was at most 1000 nM.
As to `CC1(c2cc(NC(=O)c3ccc(C#N)cn3)ccc2F)N=C(N)c2ccc(N)cc2O1` (stereo not shown) [Compound I-10], the IC50 in data set [1] is at most 1000 nM.
As to `COc1cnc(C(=O)Nc2ccc(F)c(C3(C)N=C(N)c4ccccc4S3)c2)cn1` (stereo not shown) [Compound I-8], the IC50 was 19 nM in data set [1] and 66 nM on Recombinant human BACE1.
Turning to `Cc1cnc(C(=O)Nc2ccc(F)c(C3(C)N=C(N)CCS3)c2)cn1` (stereo not shown) [Compound I-1], the concentration for half-maximal inhibition (IC50) in data set [1] is at most 1000 nM. For the same molecule, in data set [2], the bioavailability was found to be 93.4%.
For `Cc1cnc(C(=O)Nc2ccc(F)c(C3(C)N=C(N)CCS3(=O)=O)c2)cn1` (stereo not shown) [Compound I-19], the IC50 in data set [1] was at most 1000 nM. Further, the 50% inhibitory concentration (IC50) at 15 min in data set [3] was over 17000 nM. In addition, the “Remaining amount of the test compound after the reaction (metabolism stability)” value in data set [4] is 97%.
Regarding `CC1(c2cc(NC(=O)c3ccc(C#N)cn3)ccc2F)N=C(N)c2ccc(F)cc2O1` (stereo not shown) [Compound I-12], the figures for the IC50 (in data set [1]; on Recombinant human BACE1) were 15 nM and 61 nM, respectively.
On to `CC1(c2cc(NC(=O)c3ccc(C#N)cn3)ccc2F)N=C(N)c2cc(N)ccc2O1` (stereo not shown) [Compound I-9], for which, in data set [1], the concentration for half-maximal inhibition (IC50) was at most 1000 nM. Besides, the solubility at 4 h in data set [5] was over 40 µM.
As to `Cc1cnc(C(=O)Nc2ccc(F)c(C3(C)N=C(N)c4ccccc4S3)c2)cn1` (stereo not shown) [Compound I-7], the IC50 in data set [1] is at most 1000 nM.
As for `CC1(c2cc(NC(=O)c3ccc(C#N)cn3)ccc2F)N=C(N)c2ccccc2O1` (stereo not shown) [Compound I-4], the IC50 in data set [1] is at most 1000 nM. Moreover, the “CYP3A4 fluorescent MBI: difference between IC50 values without and with preincubation” value in data set [6] is “(−) (when the difference is 3 μM or less, this was defined as (−))”.
Consider `CC1(c2cc(NC(=O)c3ncc(Cl)cc3Cl)ccc2F)N=C(N)CCS1` (stereo not shown) [Compound I-2], for which the IC50 in data set [1] is under 1 nM; on Recombinant human BACE1, 10 nM.
On to `CC1(c2cc(NC(=O)c3ccc(C#N)cn3)ccc2F)N=C(N)c2cc(F)ccc2O1` (stereo not shown) [Compound I-11], for which the Kp at 0.5 h in data set [7] was 5.8. The IC50 in data set [1] is at most 1000 nM.
Take `CC1(c2cc(NC(=O)c3ccc(C#N)cn3)ccc2F)N=C(N)c2cc(Cl)ccc2O1` (stereo not shown) [Compound I-5]: the half-maximal inhibitory concentration (IC50) in data set [1] is at most 1000 nM.
Take `CC1(c2cc(NC(=O)c3ccc(C#N)cn3)ccc2F)N=C(N)c2ccccc2S1` (stereo not shown) [Compound I-3]: the 50% inhibitory concentration (IC50) in data set [1] was at most 1000 nM.
